Data from patent US7375086B2, “Modulators of Nod2 signaling” (The Regents of the University of Michigan, priority 2000, dated 2008).
“Also recorded” adds a separate entry of the source.

What was measured:
[1] = tested on: A1 mRNA; assay: Quantitative RT-PCR of A1 transcripts in PBMNC; type: cell-based, human; conditions: LPS 1 μg/ml, MDP 10 ng/ml
Protocol: (§1) FIGS. 20C and D show PBMNC analyzed for expression of IL-1β (C) and A1 (D) transcripts by quantitative RT-PCR.
(§2) Genotyping was performed using a ddNTP primer extension system. Nuclear extracts from LPS-stimulated cells were pre-incubated with antibody specific for p50 subunit of NF-κB to monitor the size of the NF-κB-DNA complex. cDNA was amplified with specific primers for human IL-1β, glyceraldehyde-3-phosphate-dehydrogenase (GAPDH) as described (5) and A1 (5′-[…]-3′ (SEQ ID NO: 53) and 5′-[…]-3′ (SEQ ID NO:54)). The levels of IL-1β and A1 transcripts normalized to that of GAPDH were expressed relative to those in untreated cells that were considered as baseline. Specificity of the desired PCR products was determined by melting curve analysis. Histograms represent the mean ±S.D. of triplicate analyses.
(§3) To further assess NF-κB activation, the mRNA levels of EL-1β and A1, two NF-κB target genes expressed in PBMNC (Cogswell et al., J. Immunol. 153:712 [1994]; Zong et al., Genes Dev. 13:384 [1999]), were evaluated by quantitative real-time polymerase-chain reaction (RT-PCR) analysis. Both IL-1β and A1 mRNA levels were induced by incubation with LPS and MDP in cells from individuals carrying normal or heterozygous NOD2 alleles (FIG. 20C and 20D). […] Thus, PBMNC require the expression of normal NOD2 for their response to MDP but not to LPS.

[2] = biological target: T1, Nod2 (Homo sapiens, UniProt Q9HC29, R703H); assay: NF-κB reporter assay in HEK293T/HEK293 cells expressing Nod2; type: cell-based
T1 construct: ligated to generate an unique cDNA containing the entire open reading frame of Nod2; expressed in transfected cells; host or cells: HEK293T
T1 sequence (Q9HC29 whole entry R703H): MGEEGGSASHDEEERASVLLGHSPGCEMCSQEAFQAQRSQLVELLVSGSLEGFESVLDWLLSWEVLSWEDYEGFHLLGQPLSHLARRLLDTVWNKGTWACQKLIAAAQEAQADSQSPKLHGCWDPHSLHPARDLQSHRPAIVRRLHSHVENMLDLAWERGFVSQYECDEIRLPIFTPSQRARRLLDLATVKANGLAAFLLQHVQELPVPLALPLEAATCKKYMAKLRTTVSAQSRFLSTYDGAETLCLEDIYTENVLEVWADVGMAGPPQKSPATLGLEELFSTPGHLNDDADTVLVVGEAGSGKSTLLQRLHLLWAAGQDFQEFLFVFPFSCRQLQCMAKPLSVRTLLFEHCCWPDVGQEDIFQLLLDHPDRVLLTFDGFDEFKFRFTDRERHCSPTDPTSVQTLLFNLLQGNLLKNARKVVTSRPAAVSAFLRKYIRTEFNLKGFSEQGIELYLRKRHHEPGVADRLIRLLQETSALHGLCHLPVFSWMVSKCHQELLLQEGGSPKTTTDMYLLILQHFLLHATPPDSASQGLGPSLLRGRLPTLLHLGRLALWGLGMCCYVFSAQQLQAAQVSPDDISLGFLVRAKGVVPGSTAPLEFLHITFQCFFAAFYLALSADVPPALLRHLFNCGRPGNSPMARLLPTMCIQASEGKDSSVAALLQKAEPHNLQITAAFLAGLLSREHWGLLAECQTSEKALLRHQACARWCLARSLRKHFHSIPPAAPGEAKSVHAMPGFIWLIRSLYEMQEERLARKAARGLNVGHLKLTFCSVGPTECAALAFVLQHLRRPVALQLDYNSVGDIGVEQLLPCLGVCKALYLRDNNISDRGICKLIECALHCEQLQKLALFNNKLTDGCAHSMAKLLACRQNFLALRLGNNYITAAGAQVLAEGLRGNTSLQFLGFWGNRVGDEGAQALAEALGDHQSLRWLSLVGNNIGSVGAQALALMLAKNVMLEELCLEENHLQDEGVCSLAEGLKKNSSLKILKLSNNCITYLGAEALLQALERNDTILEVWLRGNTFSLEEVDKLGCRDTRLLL

[3] = biological target: T2, P268S/R702W NOD2 (Homo sapiens, UniProt Q9HC29, P268S/R702W); assay: NF-κB reporter assay in HEK293T cells expressing P268S/R702W NOD2; type: cell-based; conditions: 100 ng/ml MDP
T2 construct: expressed in transfected cells; host or cells: HEK293T
T2 sequence (Q9HC29 whole entry P268S/R702W): as the sequence (Q9HC29 whole entry R703H) above, with P268S, R702W, H703R counted along it
Protocol: (§4) HEK293T cells were transfected with 0.3 μg of pMX-puro expressing normal Nod2 or mutants carrying P268S (SEQ ID NOs:56 (nucleic acid) and 57 (amino acid), P268S/R702W (SEQ ID NOs: 57 (nucleic acid) and 58 (amino acid)), P268S/G908 (SEQ ID NOs: 60 (nucleic acid) and 61 (amino acid)), P268S/L1007fsinsC (SEQ ID NOs: 54 (nucleic acid) and 55 (amino acid)) or empty plasmid (−). Eight hours post-transfection, 100 ng/ml MDP was added to the cultured cells and at 24 hours post-transfection NF-κB activity was determined as described in FIG. 1A. Values represent the normalized mean data ±S.D. of triplicate cultures. The results shown are representative of three separate experiments.

[4] = tested on: IL-1β mRNA; assay: Quantitative RT-PCR of IL-1β transcripts in PBMNC; type: cell-based, human; conditions: normal or heterozygous NOD2 alleles, LPS 1 μg/ml, MDP 10 ng/ml
Protocol: as §1, §2, §3

[5] = biological target: T3, P268S/G908R NOD2 (Homo sapiens, UniProt Q9HC29, G908R/P268S); assay: NF-κB reporter assay in HEK293T cells expressing P268S/G908R NOD2; type: cell-based; conditions: 100 ng/ml MDP
T3 construct: expressed in transfected cells; host or cells: HEK293T
T3 sequence (Q9HC29 whole entry P268S/G908R): as the sequence (Q9HC29 whole entry R703H) above, with P268S, H703R, G908R counted along it
Protocol: as §4

[6] = biological target: T4, P268S/L1007fsinsC NOD2 (Homo sapiens, UniProt Q9HC29, P268S); assay: NF-κB reporter assay in HEK293T cells expressing P268S/L1007fsinsC NOD2; type: cell-based; conditions: 100 ng/ml MDP
T4 construct: expressed in transfected cells; host or cells: HEK293T
T4 sequence (Q9HC29 with tags, fused parts or gaps P268S): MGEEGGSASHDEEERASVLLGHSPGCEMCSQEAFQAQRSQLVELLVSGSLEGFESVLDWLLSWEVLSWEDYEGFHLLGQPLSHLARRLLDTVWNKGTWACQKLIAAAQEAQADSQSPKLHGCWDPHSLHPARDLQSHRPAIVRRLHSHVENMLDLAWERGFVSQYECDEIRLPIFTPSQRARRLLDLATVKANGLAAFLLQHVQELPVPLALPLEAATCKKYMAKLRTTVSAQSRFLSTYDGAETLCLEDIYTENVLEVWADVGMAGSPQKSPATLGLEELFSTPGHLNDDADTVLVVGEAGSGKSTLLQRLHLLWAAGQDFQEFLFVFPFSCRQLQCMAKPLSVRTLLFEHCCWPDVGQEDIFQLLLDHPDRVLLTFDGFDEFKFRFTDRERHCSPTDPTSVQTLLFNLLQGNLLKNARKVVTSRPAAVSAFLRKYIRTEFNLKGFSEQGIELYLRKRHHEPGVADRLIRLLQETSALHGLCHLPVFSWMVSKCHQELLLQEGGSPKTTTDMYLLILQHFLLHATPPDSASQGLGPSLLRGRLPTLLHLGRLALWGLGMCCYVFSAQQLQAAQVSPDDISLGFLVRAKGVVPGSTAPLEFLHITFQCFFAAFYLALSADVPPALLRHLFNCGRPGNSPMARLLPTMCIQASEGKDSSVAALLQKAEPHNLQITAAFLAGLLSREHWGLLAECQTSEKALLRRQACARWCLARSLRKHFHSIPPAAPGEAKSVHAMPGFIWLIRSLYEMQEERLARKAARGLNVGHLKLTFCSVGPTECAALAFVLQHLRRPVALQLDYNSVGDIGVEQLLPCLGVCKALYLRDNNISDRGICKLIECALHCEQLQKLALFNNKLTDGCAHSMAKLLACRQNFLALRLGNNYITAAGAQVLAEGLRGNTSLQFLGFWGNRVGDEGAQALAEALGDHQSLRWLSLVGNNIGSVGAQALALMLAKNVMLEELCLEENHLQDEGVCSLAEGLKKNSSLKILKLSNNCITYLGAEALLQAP
Protocol: as §4

[7] = tested on: NF-κB; assay: NF-κB binding activity by EMSA in nuclear extracts of PBMNC; type: cell-based, human; conditions: 1 μg/ml LPS from Salmonella typhimurium, 10 ng/ml MDP, 1 hour; for response of PBMNC (NF-κB-DNA complex, EMSA): PBMNC from individuals homozygous for L1007fsinsC
Protocol: as §1, §2
The NOD2 variants associated with Crohn's disease, R702W, G908R and L1007fsinsC, occur on the same haplotype background, which includes the common P268S polymorphism (Hugot et al., Nature 411:599 [2001]; Ogura et al., Nature 411:603 [2001]). To compare the ability of normal and mutant NOD2 proteins to induce NF-κB activity in response to MDP, the NOD2 proteins were expressed in cells and evaluated in a functional assay. […] The role of NOD2 in the recognition of MDP by primary cells from normal and Crohn's disease patients was next determined. A panel of healthy and Crohn's disease individuals were genotyped for the disease-associated NOD2 alleles and two individuals (one without clinical evidence of disease and one individual with Crohn's disease) who were homozygous for the loss-of-function L1007fsinsC mutation were identified (FIG. 20A). The identification of apparently healthy individuals homozygous for L1007fsinsC is expected in that the penetrance of the L1007fsinsC mutation is not complete (Hugot et al., supra; Ogura et al., supra; Hampe et al., Lancet 357:1925 [2001]; Ahmad et al., Gastroenterology 122:854 [2002]). Peripheral blood mononuclear cells (PBMNC) that are known to express NOD2 were isolated, incubated with MDP or LPS and NF-κB activation was assessed in nuclear extracts by an electrophoretic mobility shift assay (EMSA).

[8] = biological target: T5, P268S NOD2 (Homo sapiens, UniProt Q9HC29, P268S); assay: NF-κB reporter assay in HEK293T cells expressing P268S NOD2; type: cell-based; conditions: 100 ng/ml MDP
T5 construct: expressed in transfected cells; host or cells: HEK293T
T5 sequence (Q9HC29 whole entry P268S): as the sequence (Q9HC29 whole entry R703H) above, with P268S, H703R counted along it
Protocol: as §4

stimulation of NOD2 activity ([2]; HEK293 cells, 0.3 ng pcDNA3-Nod2, MDP 100 ng/ml, sBLP 1000 ng/ml (FIG. 18D)): stimulated NOD2 activity
response of PBMNC (NF-κB-DNA complex, EMSA) [7]: but not to MDP
response of PBMNC (NF-κB-DNA complex, EMSA) ([7]; listed as muramyl dipeptide): defective in their response
SMILES: CC(=O)N[C@@H]1[C@@H](O[C@H](C)C(=O)N[C@@H](C)C(=O)N[C@H](CCC(=O)O)C(N)=O)[C@H](O)[C@@H](CO)O[C@H]1O [MDP, MurNAc-L-Ala-D-isoGln]
A1 mRNA levels ([1]; homozygous for L1007fsinsC): but not MDP
A1 mRNA levels ([1]; normal or heterozygous NOD2 alleles): induced
NOD2-dependent stimulation of NF-κB by synthetic muropeptides ([2]; HEK293T cells, 66 ng pMX-puro-NOD2 (FIG. 18B)): induced potent stimulation of NOD2; also recorded: induced Nod2-dependent activation of NF-κB
NF-κB activation in response to MDP, normal NOD2 ([2]; HEK293T cells, 100 ng/ml MDP): induced similar levels of NF-κB activation
NF-κB activation in response to MDP, P268S/R702W variant compared to normal NOD2 [3]: greatly reduced levels of NF-κB activation; also recorded: retained some ability to respond
IL-1β mRNA levels [4]: induced
NF-κB activation in response to MDP, P268S/G908R variant compared to normal NOD2 [5]: greatly reduced levels of NF-κB activation
NF-κB activation in response to MDP, P268S/L1007fsinsC variant compared to normal NOD2 [6]: greatly reduced levels of NF-κB activation; also recorded: did not respond at all
induction of the NF-κB-DNA complex (EMSA) ([7]; PBMNC from individuals carrying normal or heterozygous NOD2 alleles): resulted in induction of the NF-κB-DNA complex
NF-κB activation in response to MDP, P268S NOD2 [8]: induced similar levels of NF-κB activation
